From PubChem BioAssay (NCI)
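In this assay, cells in 96-well plates receive the compound at five concentrations for 48 hours. Endpoints are linearly interpolated between the surrounding concentrations. Here, GI50 denotes the concentration required for 50% inhibition of growth. Definition used: TGI = concentration required for complete inhibition of growth.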

Columns and labels:
Experiment in all cases: NCI anticancer screen, dose series, 48 h
M14 melanoma = system: M14 melanoma
OVCAR-8 ovarian = system: OVCAR-8 ovarian
SF-268 CNS = system: SF-268 CNS
SF-295 CNS = system: SF-295 CNS
SK-MEL-2 melanoma = system: SK-MEL-2 melanoma
SNB-19 CNS = system: SNB-19 CNS
UACC-257 melanoma = system: UACC-257 melanoma
UACC-62 melanoma = system: UACC-62 melanoma
DU-145 prostate = system: DU-145 prostate
MALME-3M melanoma = system: MALME-3M melanoma

Row | SMILES | TGI (M14 melanoma) [µM] | TGI (OVCAR-8 ovarian) [µM] | TGI (SF-268 CNS) [µM] | TGI (SF-295 CNS) [µM] | TGI (SK-MEL-2 melanoma) [µM] | TGI (SNB-19 CNS) [µM] | TGI (UACC-257 melanoma) [µM] | TGI (UACC-62 melanoma) [µM] | GI50 (M14 melanoma) [µM] | GI50 (OVCAR-8 ovarian) [µM] | GI50 (SF-268 CNS) [µM] | GI50 (SF-295 CNS) [µM] | GI50 (SK-MEL-2 melanoma) [µM] | GI50 (SNB-19 CNS) [µM] | GI50 (UACC-257 melanoma) [µM] | GI50 (UACC-62 melanoma) [µM] | GI50 (DU-145 prostate) [µM] | TGI (DU-145 prostate) [µM] | TGI (MALME-3M melanoma) [µM]
1 | O=C(O)C[C@H]1CCCCC12CCOC2=O (some centres not stated) | > 100 | > 100 | > 100 | > 100 | > 100 | > 100 | > 100 | > 100 |  |  |  |  |  |  |  |  |  |  | 
2 | Oc1ccc(O)c(-c2cn3ccsc3n2)c1 | 28.5 | 67.1 | > 100 | 51.2 | > 100 | 49.7 | 50.3 | 29.9 | 15.2 | 19.6 | 14.4 | 13.6 | 50.4 | 20.9 | 24.3 | 10.8 |  |  | 
3 | COc1ccc(C(=O)c2cc(OC)c(OC)c(OC)c2)cc1/C=C/C(=O)c1ccc(OC)c(OC)c1 | > 100 | > 100 | > 100 | > 100 |  | > 100 | > 100 |  | 2.79 | 1.85 | 3 | 5.26 |  | 2.7 | 3.19 |  | 2.21 | > 100 | 
4 | Cc1cccc2c1N(C(=O)/C=C\C(=O)O)C(c1c(C)[nH]c3ccccc13)C2 (configuration not stated) | > 100 | > 100 | > 10 | > 100 | 36 | > 100 | > 100 | 41.8 |  |  |  |  |  |  |  |  |  |  | 48.1
5 | O=C(c1ccccc1)c1ccc(Oc2ccc([N+](=O)[O-])cc2[N+](=O)[O-])cc1 | 31.6 | 14.4 | 11.9 | 8.51 | 22.6 | 34.2 | 29.2 | 32.2 | 3.09 | 3.39 | 3.3 | 2.62 | 4.57 | 7.74 | 7.05 | 4.1 | 3.33 | 12.8 | 
6 | NS(=O)(=O)c1ccc(NC2=CC(=O)C(=O)c3ccccc32)cc1 | > 100 | > 100 | > 100 | > 100 | > 100 | > 100 | > 100 | > 100 |  |  |  |  |  |  |  |  |  |  | > 100
7 | COC(=O)C(=O)C(C(=O)C(=O)Nc1nc2ccc(C)cc2s1)c1nc2ccc([N+](=O)[O-])cc2[nH]c1=O (configuration not stated) | > 100 | > 100 | > 100 | > 100 | > 100 | > 100 | > 100 | > 100 |  |  |  |  |  |  |  |  |  |  | > 100
8 | OCC(O)C(O)C(O)c1nn(-c2ccc(Cl)cc2)c2nc3cc(Cl)c(Cl)cc3nc12 (configuration not stated) | > 100 | > 100 | > 100 | > 100 | > 100 | > 100 | > 100 | > 100 |  |  |  |  |  |  |  |  |  |  | 71
9 | CCOC(=O)C1C2CCC(C2)C1(CCl)C(=O)OCC (configuration not stated) | > 100 | > 100 | > 100 | > 100 |  | > 100 | > 100 | > 100 |  |  |  |  |  |  |  |  |  |  | > 100
10 | Cc1ccc(NC(=O)C(=O)C(C#N)c2nc(-c3ccc(-c4ccccc4)cc3)cs2)c(C)c1 (configuration not stated) | > 100 | > 100 | > 100 | > 100 | > 100 | > 100 | > 100 | > 100 |  |  |  |  |  |  |  |  |  |  | > 100
11 | O=C1c2ccccc2C(=O)N1CCN(CCN1C(=O)c2ccccc2C1=O)Cn1cccn1 | > 100 | > 100 | > 100 | > 100 | > 100 | > 100 | > 100 | 63.2 |  |  |  |  |  |  |  |  |  |  | 
12 | O=C(c1ccccc1)N1C2CCC1C(C(F)(F)F)=C2C(F)(F)F | > 100 | > 100 | > 100 | > 100 |  | > 100 | > 100 | > 100 |  |  |  |  |  |  |  |  |  |  | > 100
13 | COc1c(C(=O)c2ccc([N+](=O)[O-])cc2)cc(C(C)(C)C)cc1C(C)(C)C | > 100 | > 100 | > 100 | > 100 | 30.1 | > 100 | 59.3 | 36.2 |  |  |  |  |  |  |  |  |  |  | > 100
14 | NNC(=O)CNC(=O)c1ccc(Cl)cc1Cl | > 100 | > 100 | > 100 | > 100 |  | > 100 | > 100 | > 100 |  |  |  |  |  |  |  |  |  |  | > 100
15 | N#Cc1ccccc1NC(=O)C(=O)c1c(O)c2ccccc2oc1=O | > 100 | > 100 | > 100 | > 100 | > 100 | > 100 | > 100 | > 100 |  |  |  |  |  |  |  |  |  |  | > 100
16 | CCCCCCCCOCC(O)COC(=O)CCCCCCC (configuration not stated) | > 100 | > 100 | > 100 | > 100 |  | > 100 | > 100 | > 100 |  |  |  |  |  |  |  |  |  |  | > 100
17 | Cc1cc2c(cc1C)[n+](=O)c(C(=O)C/C(=N/OCCCc1ccccc1)C(=O)Nc1cc(Cl)ccc1Cl)c(C)n2[O-] | > 100 | > 100 | > 100 | > 100 | 86.2 | > 100 | > 100 | > 100 |  |  |  |  |  |  |  |  |  |  | > 100
18 | COc1ccc2c(c1)[n+](=O)c(C(=O)c1ccco1)c(C(F)(F)F)n2[O-] | 6.72 | 9.41 | 33.2 | 14.7 | > 100 | 45.5 | 4.83 | 4.91 | 2 | 2.23 | 3.41 | 2.79 | 24 | 4.25 | 1.44 | 1.75 | 2.12 | 14.5 | 
19 | N#Cc1c2c(c(N=P(c3ccccc3)(c3ccccc3)c3ccccc3)n3c1nc1ccccc13)CCCC2 | > 100 | > 100 | > 100 | > 100 | 70.4 | 99.2 | 57.8 | 74.4 |  |  |  |  |  |  |  |  |  |  | > 100
20 | COC(=O)C(CC(C)C)NC(=O)NC12CC3CC(CC(F)(C3)C1)C2 (configuration not stated) | > 100 | > 100 |  |  | > 100 | > 100 | > 100 | > 100 |  |  |  |  |  |  |  |  |  |  | > 100
